Experimental data from patent US20150051176A1, “ARYL DERIVATIVES AS SPHINGOSINE-1 PHOSPHATE RECEPTORS MODULATORS” (Allergan, Inc., priority 2013, published 2015).

The molecules below were run against T1, human S1P1 receptor (Homo sapiens, UniProt P21453) (assay: GTP γ35S binding assay for S1P1 activity). Conditions: membranes of cells stably expressing the S1P1 receptor, test concentrations 0.08 to 5,000 nM.
T1 construct: expressed in transfected cells; membranes used
Type: biochemical
Method: Compounds were synthesized and tested for S1P1 activity using the GTP γ^35S binding assay. These compounds may be assessed for their ability to activate or block activation of the human S1P1 receptor in cells stably expressing the S1P1 receptor.
GTP γ^35S binding was measured in the medium containing (mM) HEPES 25, pH 7.4, MgCl2 10, NaCl 100, dithiothreitol 0.5, digitonin 0.003%, 0.2 nM GTP γ^35S, and 5 μg membrane protein in a volume of 150 μl. Test compounds were included in the concentration range from 0.08 to 5,000 nM unless indicated otherwise. Membranes were incubated with 100 μM 5′-adenylylimidodiphosphate for 30 min, and subsequently with 10 μM GDP for 10 min on ice. Drug solutions and membrane were mixed, and then reactions were initiated by adding GTP γ^35S and continued for 30 min at 25° C. Reaction mixtures were filtered over Whatman GF/B filters under vacuum, and washed three times with 3 mL of ice-cold buffer (HEPES 25, pH7.4, MgCl2 10 and NaCl 100). Filters were dried and mixed with scintillant, and counted for ^35S activity using a β-counter. Agonist-induced GTP γ^35S binding was obtained by subtracting that in the absence of agonist. Binding data were analyzed using a non-linear regression method. In case of antagonist assay, the reaction mixture contained 10 nM […] in the presence of test antagonist at concentrations ranging from 0.08 to 5000 nM.

T1 sequence (P21453 whole entry): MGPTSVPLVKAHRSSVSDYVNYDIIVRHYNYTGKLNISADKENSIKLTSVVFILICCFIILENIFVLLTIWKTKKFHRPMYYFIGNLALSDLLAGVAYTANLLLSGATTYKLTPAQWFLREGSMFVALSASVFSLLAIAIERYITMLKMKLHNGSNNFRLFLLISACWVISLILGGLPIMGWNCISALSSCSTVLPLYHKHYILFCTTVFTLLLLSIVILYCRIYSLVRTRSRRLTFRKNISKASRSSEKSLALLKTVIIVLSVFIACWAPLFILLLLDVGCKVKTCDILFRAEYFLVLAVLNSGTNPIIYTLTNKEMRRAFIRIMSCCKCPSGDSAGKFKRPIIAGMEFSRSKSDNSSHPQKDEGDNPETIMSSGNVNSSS

Row | EC50 | SMILES
1 | 169 nM | Cc1ccc(CC(CCCCCCNCCCP(=O)(O)O)c2cccc(Cl)c2)cc1C (centres unmarked) [3-{[7-(3-Chlorophenyl)-8-(3,4-dimethylphenyl)octyl]amino}propyl)phosphonic acid]
2 | 45.4 nM | Cc1ccc(CC(CCCCCCCNCCC(=O)O)c2cc(F)cc(F)c2)cc1C (centres unmarked) [3-{[8-(3,5-Difluorophenyl)-9-(3,4-dimethylphenyl)nonyl]amino}propanoic acid]
3 | 487 nM | Cc1ccc(CC(CCCCCCCNCCC(=O)O)c2cccc(Cl)c2)cc1C (centres unmarked) [3-{[8-(3-Chlorophenyl)-9-(3,4-dimethylphenyl)nonyl]amino}propanoic acid]
4 | 8.18 nM | Cc1ccc(CC(CCCCCCCNCCCP(=O)(O)O)c2cccc(Cl)c2)cc1C (centres unmarked) [3-{[8-(3-chlorophenyl)-9-(3,4-dimethylphenyl)nonyl]amino}propylphosphonic acid]
5 | 21.8 nM | O=C(O)CCNCCCCCCCCC(Cc1ccccc1)c1cccc(Cl)c1 (centres unmarked) [3-{[9-(3-Chlorophenyl)-10-phenyldecyl]amino}propanoic acid]
6 | 3.03 nM | Cc1ccc(CC(CCCCCCCNCCCP(=O)(O)O)c2cc(F)cc(F)c2)cc1C (centres unmarked) [(3-{[8-(3,5-Difluorophenyl)-9-(3,4-dimethylphenyl)nonyl]amino}propyl)phosphonic acid]
7 | 293 nM | Cc1ccc(CC(CCCCCCCCNCCCP(=O)(O)O)c2cccc(Cl)c2)cc1C (centres unmarked) [(3-{[9-(3-Chlorophenyl)-10-(3,4-dimethylphenyl)decyl]amino}propyl)phosphonic acid]
8 | 2.13 nM | O=P(O)(O)CCCNCCCCCCCCC(Cc1ccccc1)c1cccc(Cl)c1 (centres unmarked) [(3-{[9-(3-Chlorophenyl)-10-phenyldecyl]amino}propyl)phosphonic acid]
